Like-named read-outs stand apart in the source and are kept apart here.
Tests used:
[1] = Miscibility/solubility in heptane and water
Description: The miscibility/solubility of all ionic liquids in both heptane and water are indicated as well.
The solubility behavior of all thirty-nine geminal dicationic ionic liquids in water and heptane also was explored.

[2] = Solvation interaction parameters by inverse gas-liquid chromatography (Abraham model); type: physicochemical
Procedure: The preparation of the capillary columns for inverse gas-liquid chromatographic analysis was performed using a previously described procedure. All capillary columns had efficiencies between 2100 to 2500 plates/meter. Characterization of the capillary columns and probe molecule descriptions are listed in supplemental information. Multiple linear regression analysis (MLRA) and statistical calculations were performed using the program Analyse-it (Microsoft, USA).
Solvation Characteristics. We have previously reported that the Abraham solvation model, a linear free energy approach that utilizes inverse gas-liquid chromatography to describe the solvation properties of a liquid, can be used to characterize room temperature ionic liquids. Described by equation 1, the model provides the so-called “interaction parameters” (r, s, a, b, l) by using multiple linear regression analysis to fit the retention factor (k, determined chromatographically) to the solute descriptors (R2, π2^Hα2H, β2^H, log L^16) for a wide variety of probe solute molecules. […]
Previously we characterized a large number of room temperature ionic liquids in terms of multiple solvation interactions using the solvation parameter model, shown in equation log k=c+rR2+sπ2^H+aα2^H+bβ2^H+l log L^16 [3] This approach utilizes inverse gas-liquid chromatography and allows the use of a large number of probe molecules to deconvolute solute retention in terms of the type and magnitude of individual solvation interactions. The solute descriptors (R2, π2^H, α2^H, .β2^H, log L^16) from Equation 3 are obtained from the literature for many probe molecules containing a variety of functional groups. The retention factor is determined chromatographically. The solute descriptors and retention factors are subjected to multiple linear regression analysis to obtain the interaction parameter coefficients (r, s, a, b, l), which ultimately characterize the stationary phase: r is the ability of the diionic liquid containing-stationary phase to interact with .π0 and n electrons of the solute, s is a measure of the dipolarity/polarizability of the diionic liquid containing-stationary phase, a defines the diionic liquid containing-stationary phase hydrogen bond basicity, b is a measure of the hydrogen bond acidity, and l refers to the ability of the diionic liquid containing-stationary phase to separate adjacent members of a homologous series.
Test solutes used to determine interaction parameters and solvation thermodynamics were dissolved in dichloromethane. […] Split injection and flame ionization detection were utilized with injection and detection temperatures of 250° C. Helium was used as the carrier gas with a column inlet pressure of 3.1 psi and flow rate of 1.0 mL/min. Methane was used to determine the dead volume of the column. Multiple linear regression analysis and statistical calculations were performed using the program Analyze-it (Microsoft).

[3] = values taken from reference 31, cited from earlier work
[4] = Surface tension, DuNuoy tensiometer; type: physicochemical; settings: room temperature (23° C.)
Procedure: Surface tension values were measured at room temperature (23° C.) using a Model 20 DuNuoy Tensiometer (Fisher Scientific, Fair Lawn, N.J.) equipped with a platinum-iridium ring with a mean circumference of 5.940 cm and a ring/wire radius of 53.21.

[5] = Density by weighing 2.0 mL of ionic liquid; type: physicochemical; settings: 23° C.; Tables 1 and 2
Procedure: The densities of the ionic liquids […] were determined at 23° C. by placing 2.0 mL of the ionic liquid in a 2.0 mL volumetric tube and weighing by difference. The melting points of the ionic liquids were determined using a Perkin Elmer Pyris 1 Differential Scanning Calorimeter (Boston, Mass.). Typical methods involved using a 10° C./min temperature ramp to determine and identify the first and second order thermal transitions. […] For solid compounds, the melting points were verified using a capillary melting point apparatus. Refractive index measurements were conducted at 23° C. using a Bausch & Lomb Abbe-3L refractometer.

[6] = Solubility assay of N-methyl-D-glucamine in solvents; type: physicochemical
Description: The mechanism for the transformation of N-methyl-D-glucamine into a quaternary ammonium compound is a double nucleophilic substitution with an alkyl halide (FIG. 57). However, the first problem the inventors herein encountered with this approach was the lack of an appropriate solvent.

1,3-di(2,3-dimethylimidaolium)propane di-bromide [C3(m2im)2-Br]
Miscibility with Heptane [1]: Immiscible | Miscibility with Water [1]: Miscible

1,3-di(2,3-dimethylimidazolium)propane di-hexafluorophosphate [C3(m2im)2-PF6]
Miscibility with Heptane [1]: Immiscible | Miscibility with Water [1]: Immiscible

CCCCn1cc[n+](C)c1.O=S(=O)([N-]S(=O)(=O)C(F)(F)F)C(F)(F)F [BMIM-NTf2, 1-butyl-3-methylimidazolium bis[(trifluoromethylsulfonyl)imide], reference compound]
Interaction parameter a (hydrogen bond basicity) ([2]; 40° C.): 2.02 | Interaction parameter b (hydrogen bond acidity) ([2]; 40° C.): 0.36 | Interaction parameter c ([2]; 40° C.): −2.87 | Interaction parameter l (dispersion forces) ([2]; 40° C.): 0.63 | Interaction parameter r (interaction via nonbonding and π-electrons) ([2]; 40° C.): 0 | Interaction parameter s (dipolarity/polarizability) ([2]; 40° C.): 1.89 | Interaction parameter a (hydrogen bond basicity) ([2]; 70° C.): 1.75 | Interaction parameter b (hydrogen bond acidity) ([2]; 70° C.): 0.38 | Interaction parameter c ([2]; 70° C.): −3.03 | Interaction parameter l (dispersion forces) ([2]; 70° C.): 0.56 | Interaction parameter r (interaction via nonbonding and π-electrons) ([2]; 70° C.): 0 | Interaction parameter s (dipolarity/polarizability) ([2]; 70° C.): 1.67 | Interaction parameter a (hydrogen bond basicity) ([2]; 100° C.): 1.55 | Interaction parameter b (hydrogen bond acidity) ([2]; 100° C.): 0.24 | Interaction parameter c ([2]; 100° C.): −3.13 | Interaction parameter l (dispersion forces) ([2]; 100° C.): 0.49 | Interaction parameter r (interaction via nonbonding and π-electrons) ([2]; 100° C.): 0 | Interaction parameter s (dipolarity/polarizability) ([2]; 100° C.): 1.60

CCCC[N+]1(C)CCCC1.O=S(=O)([N-]S(=O)(=O)C(F)(F)F)C(F)(F)F [BMPY-NTf2, 1-butyl-1-methylpyrrolidinium bis[(trifluoromethylsulfonyl)imide]]
Interaction parameter a (hydrogen bond basicity) ([3]; 40° C.): 2.08 | Interaction parameter b (hydrogen bond acidity) ([3]; 40° C.): 0.16 | Interaction parameter c ([3]; 40° C.): −2.78 | Interaction parameter l (dispersion forces) ([3]; 40° C.): 0.68 | Interaction parameter r (interaction via nonbonding and π-electrons) ([3]; 40° C.): 0 | Interaction parameter s (dipolarity/polarizability) ([3]; 40° C.): 1.69 | Interaction parameter a (hydrogen bond basicity) ([3]; 70° C.): 1.78 | Interaction parameter b (hydrogen bond acidity) ([3]; 70° C.): 0 | Interaction parameter c ([3]; 70° C.): −2.80 | Interaction parameter l (dispersion forces) ([3]; 70° C.): 0.56 | Interaction parameter r (interaction via nonbonding and π-electrons) ([3]; 70° C.): 0 | Interaction parameter s (dipolarity/polarizability) ([3]; 70° C.): 1.53 | Interaction parameter a (hydrogen bond basicity) ([3]; 100° C.): 1.55 | Interaction parameter b (hydrogen bond acidity) ([3]; 100° C.): 0 | Interaction parameter c ([3]; 100° C.): −2.92 | Interaction parameter l (dispersion forces) ([3]; 100° C.): 0.48 | Interaction parameter r (interaction via nonbonding and π-electrons) ([3]; 100° C.): 0 | Interaction parameter s (dipolarity/polarizability) ([3]; 100° C.): 1.44

Cn1cc[n+](CCC[n+]2ccn(C)c2)c1.F[B-](F)(F)F.F[B-](F)(F)F [C3(mim)2-BF4, 1,3-di(3-methylimidazolium)propane di-tetrafluoroborate]
Miscibility with Heptane [1]: Immiscible | Miscibility with Water [1]: Miscible

Cn1cc[n+](CCC[n+]2ccn(C)c2)c1.[Br-].[Br-] [C3(mim)2-Br, 1,3-di(3-methylimidazolium)propane di-bromide]
Miscibility with Heptane [1]: Immiscible | Miscibility with Water [1]: Miscible

Cn1cc[n+](CCC[n+]2ccn(C)c2)c1.F[P-](F)(F)(F)(F)F.F[P-](F)(F)(F)(F)F [C3(mim)2-PF6, 1,3-di(3-methylimidazolium)propane di-hexafluorophosphate]
Miscibility with Heptane [1]: Immiscible | Miscibility with Water [1]: Immiscible

C[N+]1(CCC[N+]2(C)CCCC2)CCCC1.F[P-](F)(F)(F)(F)F.F[P-](F)(F)(F)(F)F [C3(mpy)2-PF6, 1,3-di(methylpyrrolidinium)propane di-hexafluorophosphate]
Miscibility with Heptane [1]: Immiscible | Miscibility with Water [1]: Immiscible

C[n+]1ccn(CCCCn2cc[n+](C)c2)c1.O=S(=O)([N-]S(=O)(=O)C(F)(F)F)C(F)(F)F.O=S(=O)([N-]S(=O)(=O)C(F)(F)F)C(F)(F)F [C4(mim)2-NTf2]
Interaction parameter a (hydrogen bond basicity) ([2]; 40° C.): 2.11 | Interaction parameter b (hydrogen bond acidity) ([2]; 40° C.): 0.50 | Interaction parameter c ([2]; 40° C.): −2.94 | Interaction parameter l (dispersion forces) ([2]; 40° C.): 0.56 | Interaction parameter r (interaction via nonbonding and π-electrons) ([2]; 40° C.): 0.25 | Interaction parameter s (dipolarity/polarizability) ([2]; 40° C.): 2.01 | Interaction parameter a (hydrogen bond basicity) ([2]; 70° C.): 1.77 | Interaction parameter b (hydrogen bond acidity) ([2]; 70° C.): 0.45 | Interaction parameter c ([2]; 70° C.): −2.91 | Interaction parameter l (dispersion forces) ([2]; 70° C.): 0.44 | Interaction parameter r (interaction via nonbonding and π-electrons) ([2]; 70° C.): 0.22 | Interaction parameter s (dipolarity/polarizability) ([2]; 70° C.): 1.78 | Interaction parameter a (hydrogen bond basicity) ([2]; 100° C.): 1.57 | Interaction parameter b (hydrogen bond acidity) ([2]; 100° C.): 0.33 | Interaction parameter c ([2]; 100° C.): −3.06 | Interaction parameter l (dispersion forces) ([2]; 100° C.): 0.37 | Interaction parameter r (interaction via nonbonding and π-electrons) ([2]; 100° C.): 0.20 | Interaction parameter s (dipolarity/polarizability) ([2]; 100° C.): 1.69

Cn1cc[n+](CCCCCCCCC[n+]2ccn(C)c2)c1.O=S(=O)([N-]S(=O)(=O)C(F)(F)F)C(F)(F)F.O=S(=O)([N-]S(=O)(=O)C(F)(F)F)C(F)(F)F [C9(mim)2-NTf2, 1,9-di(3-methylimidazolium)nonane di-bis[(trifluoromethyl)sulfonyl]imidate]
Interaction parameter a (hydrogen bond basicity) ([2]; 40° C.): 1.83 | Interaction parameter b (hydrogen bond acidity) ([2]; 40° C.): 0.47 | Interaction parameter c ([2]; 40° C.): −2.86 | Interaction parameter l (dispersion forces) ([2]; 40° C.): 0.62 | Interaction parameter r (interaction via nonbonding and π-electrons) ([2]; 40° C.): 0.16 | Interaction parameter s (dipolarity/polarizability) ([2]; 40° C.): 1.81 | Interaction parameter a (hydrogen bond basicity) ([2]; 70° C.): 1.75 | Interaction parameter b (hydrogen bond acidity) ([2]; 70° C.): 0.20 | Interaction parameter c ([2]; 70° C.): −2.95 | Interaction parameter l (dispersion forces) ([2]; 70° C.): 0.51 | Interaction parameter r (interaction via nonbonding and π-electrons) ([2]; 70° C.): 0.11 | Interaction parameter s (dipolarity/polarizability) ([2]; 70° C.): 1.76 | Interaction parameter a (hydrogen bond basicity) ([2]; 100° C.): 1.50 | Interaction parameter b (hydrogen bond acidity) ([2]; 100° C.): 0.15 | Interaction parameter c ([2]; 100° C.): −3.06 | Interaction parameter l (dispersion forces) ([2]; 100° C.): 0.43 | Interaction parameter r (interaction via nonbonding and π-electrons) ([2]; 100° C.): 0.11 | Interaction parameter s (dipolarity/polarizability) ([2]; 100° C.): 1.64

[Br-].[Br-].c1ccc(Cn2cc[n+](CCCCCCCCCCCC[n+]3ccn(Cc4ccccc4)c3)c2)cc1 [C12(benzim)2-Br, 1,12-di(3-benzylimidazolium)dodecane di-bromide]
Miscibility with Water ([1]; listed as 28): insoluble in water

O=S(=O)([N-]S(=O)(=O)C(F)(F)F)C(F)(F)F.O=S(=O)([N-]S(=O)(=O)C(F)(F)F)C(F)(F)F.c1ccc(Cn2cc[n+](CCCCCCCCCCCC[n+]3ccn(Cc4ccccc4)c3)c2)cc1 [C12(benzim)2-NTf2, 1,12-di(3-benzylimidazolium)dodecane di-bis[(trifluoromethyl)sulfonyl]imidate]
Interaction parameter a (hydrogen bond basicity) ([2]; 40° C.): 1.96 | Interaction parameter b (hydrogen bond acidity) ([2]; 40° C.): 0.84 | Interaction parameter c ([2]; 40° C.): −2.94 | Interaction parameter l (dispersion forces) ([2]; 40° C.): 0.66 | Interaction parameter r (interaction via nonbonding and π-electrons) ([2]; 40° C.): 0.11 | Interaction parameter s (dipolarity/polarizability) ([2]; 40° C.): 1.65 | Interaction parameter a (hydrogen bond basicity) ([2]; 70° C.): 1.75 | Interaction parameter b (hydrogen bond acidity) ([2]; 70° C.): 0.57 | Interaction parameter c ([2]; 70° C.): −3.07 | Interaction parameter l (dispersion forces) ([2]; 70° C.): 0.56 | Interaction parameter r (interaction via nonbonding and π-electrons) ([2]; 70° C.): 0.07 | Interaction parameter s (dipolarity/polarizability) ([2]; 70° C.): 1.62 | Interaction parameter a (hydrogen bond basicity) ([2]; 100° C.): 1.44 | Interaction parameter b (hydrogen bond acidity) ([2]; 100° C.): 0.52 | Interaction parameter c ([2]; 100° C.): −3.12 | Interaction parameter l (dispersion forces) ([2]; 100° C.): 0.46 | Interaction parameter r (interaction via nonbonding and π-electrons) ([2]; 100° C.): 0 | Interaction parameter s (dipolarity/polarizability) ([2]; 100° C.): 1.47

Cn1cc[n+](CCCCCCCCCCCC[n+]2ccn(C)c2)c1.[Br-].[Br-] [C12(mim)2-Br, 1,12-di(3-methylimidazolium)dodecane di-bromide]
Miscibility with Water [1]: Miscible | Surface Tension [4]: 57.9 dynes/cm | Density [5]: 1.27 g/mL

CNC[C@H](O)[C@@H](O)[C@H](O)[C@H](O)CO [N-methyl-D-glucamine]
solubility in acetone, dimethyl formamide, tetrahydrofuran, ethyl acetate, acetonitrile and dichloromethane [6]: insoluble | solubility in water, dimethylsulfoxide (DMSO) [6]: only soluble

Reference: US8734673B2, “Boron selective ionic liquids and polymeric ionic liquids, methods of making and methods of use thereof” (The University of Toledo, priority 2008, dated 2014)
